{"source": "BindingDB's records for doi:10.1016/j.bmcl.2011.09.060", "about": "(Second Military Medical University, 2011)", "data": [{"molecular_target": "Acrosin (Homo sapiens, UniProt P10323)", "sequence (P10323 20-42 limits assumed)": "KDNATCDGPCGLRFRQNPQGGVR", "sequence (P10323 43-343 limits assumed)": "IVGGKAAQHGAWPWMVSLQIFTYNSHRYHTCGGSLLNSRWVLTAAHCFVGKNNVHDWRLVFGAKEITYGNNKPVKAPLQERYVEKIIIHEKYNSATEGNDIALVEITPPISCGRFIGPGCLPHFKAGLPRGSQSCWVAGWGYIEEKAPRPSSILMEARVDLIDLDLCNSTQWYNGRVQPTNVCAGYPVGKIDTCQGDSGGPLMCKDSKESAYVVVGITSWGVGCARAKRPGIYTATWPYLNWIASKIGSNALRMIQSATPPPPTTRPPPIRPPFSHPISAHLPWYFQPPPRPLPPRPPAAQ", "test": "Inhibition of acrosin activity in human spermatozoa using N-alpha-benzoyl-DL-arginine para-nitroanilide-HCI as a substrate after 3 hrs by spectrophotometric analysis", "units": {"IC50": "mM"}, "values": [{"smiles": "CCOC(=O)C1CCN(CC(=O)Nc2ccc(S(=O)(=O)N=C(N)N)cc2)CC1", "IC50": 2.99}, {"smiles": "N=C(N)NS(=O)(=O)c1ccc(NC(=O)c2ccccc2Br)cc1", "IC50": 7.63}, {"smiles": "N=C(N)NS(=O)(=O)c1ccc(NC(=O)c2cccc(C(F)(F)F)c2)cc1", "IC50": 7.05}, {"smiles": "N=C(N)NS(=O)(=O)c1ccc(NC(=O)COc2ccc([N+](=O)[O-])cc2)cc1", "IC50": 4.2}, {"smiles": "N=C(N)NS(=O)(=O)c1ccc(NC(=O)c2ccc(F)cc2)cc1", "IC50": 7.11}, {"smiles": "CCC(=O)Nc1ccc(S(=O)(=O)N=C(N)N)cc1", "IC50": 9}, {"smiles": "N=C(N)NS(=O)(=O)c1ccc(NC(=O)COc2ccc(Cl)cc2)cc1", "IC50": 9.35}, {"smiles": "CCc1ccc(C(=O)Nc2ccc(S(=O)(=O)N=C(N)N)cc2)cc1", "IC50": 0.21}, {"smiles": "N=C(N)NS(=O)(=O)c1ccc(NC(=O)c2cccc(Cl)c2)cc1", "IC50": 7}, {"smiles": "N=C(N)NS(=O)(=O)c1ccc(NC(=O)c2ccc(Cl)cc2Cl)cc1", "IC50": 5.63}, {"smiles": "COc1ccc(C(=O)Nc2ccc(S(=O)(=O)NC(=N)N)cc2)cc1", "IC50": 2.21}, {"smiles": "N=C(N)NS(=O)(=O)c1ccc(NC(=O)c2c(F)cccc2F)cc1", "IC50": 7.18}, {"smiles": "COc1ccc(OCC(=O)Nc2ccc(S(=O)(=O)N=C(N)N)cc2)cc1", "IC50": 9.84}, {"smiles": "CCCCC(=O)Nc1ccc(S(=O)(=O)NC(=N)N)cc1", "IC50": 1.58}, {"smiles": "NC(N)=NS(=O)(=O)c1ccc(NC(=O)c2ccc(Cl)c(Cl)c2)cc1", "IC50": 3.8}, {"smiles": "Cc1ccc(OCC(=O)Nc2ccc(S(=O)(=O)N=C(N)N)cc2)cc1", "IC50": 8.98}, {"smiles": "CC1CCN(CC(=O)Nc2ccc(S(=O)(=O)NC(=N)N)cc2)CC1", "IC50": 4.98}, {"smiles": "N=C(N)NS(=O)(=O)c1ccc(NC(=O)c2ccccc2Cl)cc1", "IC50": 6.3}, {"smiles": "Cc1ccc(C(=O)Nc2ccc(S(=O)(=O)NC(=N)N)cc2)cc1", "IC50": 2.06}, {"smiles": "CC(C)OC(=O)C1CCN(CC(=O)Nc2ccc(S(=O)(=O)NC(=N)N)cc2)CC1", "IC50": 2.35}, {"smiles": "CCCCOC(=O)C1CCN(CC(=O)Nc2ccc(S(=O)(=O)NC(=N)N)cc2)CC1", "IC50": 9.5}, {"smiles": "NC(N)=NS(=O)(=O)c1ccc(NC(=O)c2cc([N+](=O)[O-])cc([N+](=O)[O-])c2)cc1", "IC50": 2.5}, {"smiles": "COC(=O)c1ccc(OC(=O)c2ccc(NC(=N)N)cc2)cc1", "IC50": 0.027}, {"smiles": "CCCC(=O)Nc1ccc(S(=O)(=O)NC(=N)N)cc1", "IC50": 9.58}, {"smiles": "N=C(N)NS(=O)(=O)c1ccc(NC(=O)c2ccc(CCl)cc2)cc1", "IC50": 3.84}, {"smiles": "Cc1cc(C)c(C(=O)Nc2ccc(S(=O)(=O)NC(=N)N)cc2)c(C)c1", "IC50": 2.45}, {"smiles": "CCOc1ccc(C(=O)Nc2ccc(S(=O)(=O)NC(=N)N)cc2)cc1", "IC50": 0.13}, {"smiles": "CCCOC(=O)C1CCN(CC(=O)Nc2ccc(S(=O)(=O)N=C(N)N)cc2)CC1", "IC50": 3.31}, {"smiles": "NC(N)=NS(=O)(=O)c1ccc(NC(=O)CN2CCCCC2)cc1", "IC50": 7.41}, {"smiles": "Cc1cccc(OCC(=O)Nc2ccc(S(=O)(=O)N=C(N)N)cc2)c1", "IC50": 8.92}, {"smiles": "N=C(N)NS(=O)(=O)c1ccc(NC(=O)COc2ccccc2)cc1", "IC50": 2.3}, {"smiles": "CC1CCCCN1CC(=O)Nc1ccc(S(=O)(=O)N=C(N)N)cc1", "note": "(stereo unspecified)", "IC50": 9.9}, {"smiles": "Cc1ccccc1OCC(=O)Nc1ccc(S(=O)(=O)NC(=N)N)cc1", "IC50": 9.3}, {"smiles": "COC(=O)C1CCN(CC(=O)Nc2ccc(S(=O)(=O)NC(=N)N)cc2)CC1", "IC50": 9.3}, {"smiles": "CC(C)CCOC(=O)C1CCN(CC(=O)Nc2ccc(S(=O)(=O)NC(=N)N)cc2)CC1", "IC50": 2.51}, {"smiles": "NC(N)=NS(=O)(=O)c1ccc(NC(=O)c2c(Cl)cccc2Cl)cc1", "IC50": 5.96}]}]}
